From PubChem BioAssay (NCI)
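GI50 marks 50% less growth. Definition used: TGI = concentration required for complete inhibition of growth.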

How the values were obtained:
Assay in all cases: NCI-60 cell line screen, 384-well format
T-47D breast = system: T-47D breast
MALME-3M melanoma = system: MALME-3M melanoma
SK-MEL-5 melanoma = system: SK-MEL-5 melanoma
NCI-H23 lung = system: NCI-H23 lung
TK-10 renal = system: TK-10 renal
OVCAR-8 ovarian = system: OVCAR-8 ovarian
PC-3 prostate = system: PC-3 prostate
COLO 205 colon = system: COLO 205 colon
BT-549 breast = system: BT-549 breast
HCT-116 colon = system: HCT-116 colon
SK-OV-3 ovarian = system: SK-OV-3 ovarian
UACC-257 melanoma = system: UACC-257 melanoma
CCRF-CEM leukemia = system: CCRF-CEM leukemia
786-0 renal = system: 786-0 renal
SF-295 CNS = system: SF-295 CNS
MCF7 breast = system: MCF7 breast
K-562 leukemia = system: K-562 leukemia
U251 glioblastoma = system: U251 glioblastoma
SK-MEL-28 melanoma = system: SK-MEL-28 melanoma
DU-145 prostate = system: DU-145 prostate
NCI-H460 NSCLC = system: NCI-H460 NSCLC
HL-60(TB) leukemia = system: HL-60(TB) leukemia
HOP-62 NSCLC = system: HOP-62 NSCLC
LOX IMVI melanoma = system: LOX IMVI melanoma
HCC-2998 colon = system: HCC-2998 colon
HOP-92 NSCLC = system: HOP-92 NSCLC
IGROV1 ovarian = system: IGROV1 ovarian
NCI-H322M lung = system: NCI-H322M lung
HT29 colon = system: HT29 colon
NCI/ADR-RES ovarian = system: NCI/ADR-RES ovarian
OVCAR-4 ovarian = system: OVCAR-4 ovarian
KM12 colon = system: KM12 colon
NCI-H226 lung = system: NCI-H226 lung
NCI-H522 lung = system: NCI-H522 lung
MDA-MB-435 melanoma = system: MDA-MB-435 melanoma
A498 renal = system: A498 renal
MDA-MB-468 breast = system: MDA-MB-468 breast
UACC-62 melanoma = system: UACC-62 melanoma
MDA-MB-231 breast = system: MDA-MB-231 breast
SW-620 colon = system: SW-620 colon
ACHN renal = system: ACHN renal
RXF 393 renal = system: RXF 393 renal
SK-MEL-2 melanoma = system: SK-MEL-2 melanoma
UO-31 renal = system: UO-31 renal
A549 NSCLC = system: A549 NSCLC
HCT-15 colon = system: HCT-15 colon
SF-268 CNS = system: SF-268 CNS
OVCAR-5 ovarian = system: OVCAR-5 ovarian
OVCAR-3 ovarian = system: OVCAR-3 ovarian
SN12C renal = system: SN12C renal
CAKI-1 renal = system: CAKI-1 renal
M14 melanoma = system: M14 melanoma
MOLT-4 leukemia = system: MOLT-4 leukemia
RPMI-8226 leukemia = system: RPMI-8226 leukemia
SNB-19 CNS = system: SNB-19 CNS
SR leukemia = system: SR leukemia
SF-539 CNS = system: SF-539 CNS

COc1cc2c(Oc3ccc(-c4cnc(Nc5ccc(F)cc5)n(C)c4=O)cc3F)ccnc2cc1OCCCN1CCOCC1
GI50 (T-47D breast): 1070 nM
TGI (T-47D breast): 2260 nM
GI50 (MALME-3M melanoma): 140 nM
TGI (MALME-3M melanoma): 453 nM
GI50 (SK-MEL-5 melanoma): 329 nM
TGI (SK-MEL-5 melanoma): 1500 nM
GI50 (NCI-H23 lung): 237 nM
TGI (NCI-H23 lung): 1350 nM
GI50 (TK-10 renal): 1160 nM
TGI (TK-10 renal): 2400 nM
GI50 (OVCAR-8 ovarian): 1310 nM
TGI (OVCAR-8 ovarian): 2590 nM
GI50 (PC-3 prostate): 1520 nM
TGI (PC-3 prostate): 2860 nM
GI50 (COLO 205 colon): 227 nM
TGI (COLO 205 colon): 761 nM
GI50 (BT-549 breast): 684 nM
TGI (BT-549 breast): 1870 nM
GI50 (HCT-116 colon): 704 nM
TGI (HCT-116 colon): 2000 nM
GI50 (SK-OV-3 ovarian): 680 nM
TGI (SK-OV-3 ovarian): 1990 nM
GI50 (UACC-257 melanoma): 252 nM
TGI (UACC-257 melanoma): 1090 nM
GI50 (CCRF-CEM leukemia): 1070 nM
TGI (CCRF-CEM leukemia): 2260 nM
GI50 ([…]-0 renal): 1240 nM
TGI (786-0 renal): 2490 nM
GI50 (SF-295 CNS): 439 nM
TGI (SF-295 CNS): 1640 nM
GI50 (MCF7 breast): 441 nM
TGI (MCF7 breast): 1620 nM
GI50 (K-562 leukemia): 10.7 nM
TGI (K-562 leukemia): 23.4 nM
GI50 (U251 glioblastoma): 1140 nM
TGI (U251 glioblastoma): 2360 nM
GI50 (SK-MEL-28 melanoma): 258 nM
TGI (SK-MEL-28 melanoma): 923 nM
GI50 (DU-145 prostate): 1470 nM
TGI (DU-145 prostate): 2800 nM
GI50 (NCI-H460 NSCLC): 526 nM
TGI (NCI-H460 NSCLC): 1790 nM
GI50 (HL-60(TB) leukemia): 268 nM
TGI (HL-60(TB) leukemia): 1130 nM
GI50 (HOP-62 NSCLC): 1310 nM
TGI (HOP-62 NSCLC): 2590 nM
GI50 (LOX IMVI melanoma): 402 nM
TGI (LOX IMVI melanoma): 1450 nM
GI50 (HCC-2998 colon): 1170 nM
TGI (HCC-2998 colon): 2400 nM
GI50 (HOP-92 NSCLC): 76.4 nM
TGI (HOP-92 NSCLC): 452 nM
GI50 (IGROV1 ovarian): 368 nM
TGI (IGROV1 ovarian): 1470 nM
GI50 (NCI-H322M lung): 761 nM
TGI (NCI-H322M lung): 2020 nM
GI50 (HT29 colon): 275 nM
TGI (HT29 colon): 1200 nM
GI50 (NCI/ADR-RES ovarian): 1180 nM
TGI (NCI/ADR-RES ovarian): 2410 nM
GI50 (OVCAR-4 ovarian): 1110 nM
TGI (OVCAR-4 ovarian): 2320 nM
TGI (KM12 colon): 308 nM
GI50 (NCI-H226 lung): 476 nM
TGI (NCI-H226 lung): 1570 nM
GI50 (NCI-H522 lung): 1040 nM
TGI (NCI-H522 lung): 2210 nM
GI50 (MDA-MB-435 melanoma): 384 nM
TGI (MDA-MB-435 melanoma): 1390 nM
GI50 (A498 renal): 1240 nM
TGI (A498 renal): 2500 nM
GI50 (MDA-MB-468 breast): 1540 nM
TGI (MDA-MB-468 breast): 2870 nM
GI50 (UACC-62 melanoma): 288 nM
TGI (UACC-62 melanoma): 1250 nM
GI50 (MDA-MB-231 breast): 748 nM
TGI (MDA-MB-231 breast): 2030 nM
GI50 (SW-620 colon): 509 nM
TGI (SW-620 colon): 1880 nM
GI50 (ACHN renal): 313 nM
TGI (ACHN renal): 1460 nM
GI50 (RXF 393 renal): 189 nM
TGI (RXF 393 renal): 541 nM
GI50 (SK-MEL-2 melanoma): 495 nM
TGI (SK-MEL-2 melanoma): 1510 nM
GI50 (UO-31 renal): 409 nM
TGI (UO-31 renal): 1430 nM
GI50 (A549 NSCLC): 572 nM
TGI (A549 NSCLC): 1800 nM
GI50 (HCT-15 colon): 792 nM
TGI (HCT-15 colon): 2030 nM
GI50 (SF-268 CNS): 1160 nM
TGI (SF-268 CNS): 2390 nM
GI50 (OVCAR-5 ovarian): 811 nM
TGI (OVCAR-5 ovarian): 2050 nM
GI50 (OVCAR-3 ovarian): 804 nM
TGI (OVCAR-3 ovarian): 2040 nM
GI50 (SN12C renal): 247 nM
TGI (SN12C renal): 1290 nM
GI50 (CAKI-1 renal): 368 nM
TGI (CAKI-1 renal): 1410 nM
GI50 (M14 melanoma): 248 nM
TGI (M14 melanoma): 814 nM
GI50 (MOLT-4 leukemia): 150 nM
TGI (MOLT-4 leukemia): 369 nM
GI50 (RPMI-8226 leukemia): 545 nM
TGI (RPMI-8226 leukemia): 1740 nM
GI50 (SNB-19 CNS): 1260 nM
TGI (SNB-19 CNS): 2520 nM
GI50 (SR leukemia): 513 nM
TGI (SR leukemia): 1680 nM
GI50 (SF-539 CNS): 257 nM
TGI (SF-539 CNS): 1150 nM
